Where two headings read alike, the source gives them in different places.
Format: physicochemical
Settings: prior to aerosolization

Row | Structure (SMILES) | liquid analysis, content (formulation containing 1-menthol (83.1% water, 15.0% 2-hydroxy-propyl-β-cyclodextrin, 0.9% 1-menthol, 1% nicotine)) | liquid analysis, content (formulation containing 1-menthol) [mg/g] | liquid analysis, content (formulation containing vanillin) [mg/g]
1 | CC1CCC(C(C)C)C(O)C1 (stereo not drawn) [1-menthol] | 0.8 % (w/w) | 8 | 
2 | COc1cc(C=O)ccc1O [vanillin] |  |  | 5
